The results in this text go back to US9862680B2, “Peripherally substituted monocyclic beta-lactams” (University of Notre Dame du Lac, priority 2016, dated 2018).

Broadly, the MIC is the lowest concentration found to suppress growth. A word on the zone of inhibition: it is the size of the clear area around the sample on an inoculated plate. As usually defined, the Ki is the dissociation constant of the complex between target and ligand, obtained from inhibition or displacement.

In test [1] the test system is panel of Gram-positive and Gram-negative bacteria. The test can be described thus: MIC determination. The note with it: same panel of Gram-positive and Gram-negative bacteria, all values. It counts as cell-based.
In test [2] the test system is E. Coli DC0. Put plainly: Agar diffusion assay (modified Kirby-Bauer). The note with it: 2 mM solution, 50 μL in 9.0 mm well, P unclear, V very unclear zone, * slightly misshapen zone. Format: cell-based. On the procedure: (§1) Antibacterial activity of the compounds was determined by a modified Kirby-Bauer^27-28 agar-diffusion assay. Overnight cultures of test organisms were grown in LB broth for 18-24h and standard suspensions of […] were prepared in saline solution (0.9% NaCl) according to a 0.5 BaSO4 McFarland Standard. This standardized suspension (0.1 mL) was added to 34 mL of sterile, Mueller Hinton No. 2 agar tempered to 47-50° C. After gentle mixing, the inoculated agar media was poured into a sterile plastic petri dish (145 mm×20 mm) and allowed to solidify near a flame with the lid cracked for 30 min. Wells of 9.0 mm diameter were cut from the petri dish agar and filled with exactly 50 μL of the test sample solution. For studies using mixtures of compounds, both test compounds were diluted to equal concentrations and 50 μL of the mixed compound solution was added to the cut well. The petri dish was incubated at 37° C. for 18-24 h and the inhibition zone diameters were measured (mm) with an electronic caliper after 24-48 h.
(§2) All compound-containing solutions were prepared by first making a 20 mM solution of the compound in DMSO and then diluting that solution 10-fold with MeOH to give the final 2 mM solution used in the assay.
(§3) Plates were incubated after inoculation at 37° C. for 20 hours. Plates were photographed after 1 day. M. vaccae required a longer incubation time, 48 hours, and was photographed after 3 days.
On the technique in general: Agar diffusion results depend on both activity and mobility in agar.

The subject of test [3] is P. Aeruginosa K799/61. Put plainly: Agar diffusion assay (modified Kirby-Bauer). Format: cell-based. Conditions: for Zone of Growth Inhibition: P. Aeruginosa K799/61 (permeability mutant), 2 mM solution, 50 μL in 9.0 mm well, P unclear, V very unclear zone, * slightly misshapen zone. On the procedure:
as §1, §2, §3

For test [4], the system named is M. Vaccae IMET 10670. Put plainly: Agar diffusion assay (modified Kirby-Bauer). Format: cell-based. Conditions: 2 mM solution, 50 μL in 9.0 mm well, 48 hours incubation, P unclear, V very unclear zone, * slightly misshapen zone. The procedure:
as §1, §2, §3

Test [5] concerns S. Aureus SG511. Put plainly: Agar diffusion assay (modified Kirby-Bauer). Format: cell-based. The note with it: 2 mM solution, 50 μL in 9.0 mm well, P unclear, V very unclear zone, * slightly misshapen zone; for zone of inhibition at 2000 µM: Staphylococcus aureus, read-out: Zone of Growth Inhibition. On the procedure: as §1, §2, §3
In test [6] the test system is E. Coli DC2. The test can be described thus: Agar diffusion assay (modified Kirby-Bauer). It counts as cell-based. The procedure: as §1, §2, §3
Test [7] deals with M. Luteus ATCC 10240. The test can be described thus: Agar diffusion assay (modified Kirby-Bauer). Format: cell-based. Conditions: M. Luteus ATCC 10240, 2 mM solution, 50 μL in 9.0 mm well, P unclear, V very unclear zone, * slightly misshapen zone. The procedure:
as §1, §2, §3

The subject of test [8] is B. Subtilis ATCC 6633. Put plainly: Agar diffusion assay (modified Kirby-Bauer). Format: cell-based. Conditions: 2 mM solution, 50 μL in 9.0 mm well, P unclear, V very unclear zone, * slightly misshapen zone. The procedure:
as §1, §2, §3

Test [9] has as its system B. Dolosa AU 0018. The test can be described thus: Agar diffusion assay (modified Kirby-Bauer). It counts as cell-based. The note with it: 2 mM solution, 50 μL in 9.0 mm well, P unclear, V very unclear zone, * slightly misshapen zone; for zone of inhibition at 2000 µM: Burkholderia dolosa, read-out: Zone of Growth Inhibition. On the procedure:
as §1, §2, §3

The subject of test [10] is P. Aeruginosa K799/wt. The test can be described thus: Agar diffusion assay (modified Kirby-Bauer). It counts as cell-based. The note with it: P. Aeruginosa K799/wt (wild type), 2 mM solution, 50 μL in 9.0 mm well, P unclear, V very unclear zone, * slightly misshapen zone. The procedure:
as §1, §2, §3

Test [11] has as its system panel of Gram-positive and Gram-negative bacteria. The test can be described thus: Kirby-Bauer agar diffusion assays, results in words. Format: cell-based. The procedure:
as §1, §2, §3

In test [12] the test system is A. Baumannii ATCC 17961. The test can be described thus: Agar diffusion assay (modified Kirby-Bauer). Format: cell-based. Conditions: 2 mM solution, 50 μL in 9.0 mm well, P unclear, V very unclear zone, * slightly misshapen zone. The procedure:
as §1, §2, §3

For test [13], the target named is T1, SHV-12 (Klebsiella pneumoniae, UniProt P0AD64, E235K/G234S/L31Q).
T1 construct: host or cells: E. coli
T1 sequence (P0AD64 22-286 L31Q/G234S/E235K): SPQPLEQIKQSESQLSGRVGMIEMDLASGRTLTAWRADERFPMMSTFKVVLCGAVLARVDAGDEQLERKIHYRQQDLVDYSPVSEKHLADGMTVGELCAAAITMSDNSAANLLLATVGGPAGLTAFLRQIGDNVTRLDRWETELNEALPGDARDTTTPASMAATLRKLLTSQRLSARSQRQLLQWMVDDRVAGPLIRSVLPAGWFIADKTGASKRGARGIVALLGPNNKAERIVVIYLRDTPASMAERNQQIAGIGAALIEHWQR
The test can be described thus: β-lactamase inhibition, Ki by enzyme kinetics (nitrocefin). It counts as biochemical. The note with it: SHV-12, class A. On the procedure: (§4) The enzymes KPC-2, Oxa-48, AmpC and NDM-1 were purchased from Emerald Bioscience and the enzymes CTX-14 and SHV-12 were expressed and purified from E. coli at Rempex pharmaceutical (San Diego, Calif.).
(§5) To the first row of a 2-mL deep 96-well block was added 1 mL of 50 mM sodium phosphate buffer at pH 7 with 0.1 mg/mL BSA (bovine serum albumin). To the first row was added an appropriate amount of a 10 mg/mL solution of the compound to be tested to make a 640 μM (4×) solution. Each of the other wells in the 96-well block were charged with 750 μL of the aforementioned buffer. The rows were then repeatedly diluted 1:3 so that the final concentrations of the individual 96-well plates would range in concentrations from 160 μM to 3 nM (8 dilutions). The master block was then used to add 50 pt to each corresponding well in the 96-well flat-bottom plate. An additional 50 of buffer was added to each well. Once the plates were prepared, 50 μL of the enzyme to be tested against were added in buffer to each well [KPC-2 (0.147 mg/mL), CTX-M-14 (0.102 mg/mL), […] (0.331 mg/mL), AmpC (0.699 mg/mL), SHV-12 (0.111 mg/mL), NDM-1 (0.110 mg/mL)]. The plates were incubated at rt for 10 min before 50 μL. of an appropriate indicator were added to each well and the optical density at 495 nm was measured over time. For each enzyme, other than NDM-1, nitrocefin was used. Nitrocefin (10 μM for SHV-12, 50 μM for the other enzymes), was appropriate because when cleaved by a β-lactamase, the color changes from yellow to red. For NDM-1, imipenem (10 μM) was the indicator of choice. Rather than observe the growing presence of optical density at 495 nm, as with nitrocefin, the disappearance of imipenem was monitored. The inhibition curves were monitored and used to perform enzyme kinetics according to Waley to determine the Ki (μM) of each compound against the β-lactamases screened.

The target in test [14] is AmpC. The test is described as above. Format: biochemical. Conditions: class C. The procedure:
as §4, §5

The target in test [15] is T2, KPC-2 (Klebsiella pneumoniae, UniProt Q9F663).
T2 construct: purchased Emerald Bioscience
T2 sequence (Q9F663 25-293 limits assumed): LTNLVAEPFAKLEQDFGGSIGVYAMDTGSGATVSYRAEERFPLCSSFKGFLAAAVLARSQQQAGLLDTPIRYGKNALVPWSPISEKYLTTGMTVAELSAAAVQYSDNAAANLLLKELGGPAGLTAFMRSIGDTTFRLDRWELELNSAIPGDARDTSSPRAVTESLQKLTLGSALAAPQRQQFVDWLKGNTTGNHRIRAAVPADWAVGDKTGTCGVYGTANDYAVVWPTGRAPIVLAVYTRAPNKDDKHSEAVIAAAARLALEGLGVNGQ
The description is as above. It counts as biochemical. The note with it: KPC-2, class A. The procedure:
as §4, §5

In test [16] the target is T3, Oxa-48 (Klebsiella pneumoniae, UniProt Q6XEC0).
T3 construct: purchased Emerald Bioscience
T3 sequence (Q6XEC0 23-265 limits assumed): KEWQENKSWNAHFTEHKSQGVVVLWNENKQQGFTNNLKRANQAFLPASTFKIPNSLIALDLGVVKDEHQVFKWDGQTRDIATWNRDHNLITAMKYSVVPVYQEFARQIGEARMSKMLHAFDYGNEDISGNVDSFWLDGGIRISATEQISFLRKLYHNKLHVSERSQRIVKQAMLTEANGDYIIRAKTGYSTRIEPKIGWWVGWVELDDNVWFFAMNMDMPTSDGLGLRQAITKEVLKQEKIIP
Described as above. It counts as biochemical. Conditions: Oxa-48, class D. The procedure: as §4, §5

Test [17] deals with T4, CTX-M-14 (Escherichia coli, UniProt Q9L5C7).
T4 construct: host or cells: E. coli
T4 sequence (Q9L5C7 entry or part of it): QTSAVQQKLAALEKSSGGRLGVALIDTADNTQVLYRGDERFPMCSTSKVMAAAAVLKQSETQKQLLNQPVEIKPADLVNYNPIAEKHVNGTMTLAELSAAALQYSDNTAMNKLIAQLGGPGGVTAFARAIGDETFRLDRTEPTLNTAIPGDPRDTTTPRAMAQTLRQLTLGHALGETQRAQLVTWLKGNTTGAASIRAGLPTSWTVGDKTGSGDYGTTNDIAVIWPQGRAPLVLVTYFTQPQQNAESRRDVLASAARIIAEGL
Described as above. Format: biochemical. Conditions: CTX-M-14, class A. The procedure: as §4, §5

In test [18] the test system is selected β-lactamase enzymes from classes A, B, C and D. The test can be described thus: β-lactamase inhibitory activity, results in words. It counts as biochemical. The note with it: C and D (Ambler classification). The procedure:
as §5

Test [19] deals with T5, NDM-1 (Klebsiella pneumoniae, UniProt C7C422).
T5 construct: purchased Emerald Bioscience
T5 sequence (C7C422 29-270 limits assumed): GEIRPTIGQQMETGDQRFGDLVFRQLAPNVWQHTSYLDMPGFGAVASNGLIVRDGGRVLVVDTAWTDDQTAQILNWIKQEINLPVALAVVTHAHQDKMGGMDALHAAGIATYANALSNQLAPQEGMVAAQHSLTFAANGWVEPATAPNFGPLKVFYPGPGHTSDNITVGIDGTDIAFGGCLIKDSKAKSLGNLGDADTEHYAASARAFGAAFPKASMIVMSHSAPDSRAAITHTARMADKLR
The test can be described thus: β-lactamase inhibition, Ki by enzyme kinetics (imipenem). Conditions: NDM-1, class B. It counts as biochemical. On the procedure: as §4, §5

Test [20] addresses PAM 2035. The test can be described thus: β-lactamase inhibition, Ki by enzyme kinetics. It counts as biochemical. Conditions: PAM 2035, class C.
The target of test [21] is VIM-1 (Pseudomonas aeruginosa, UniProt A0A0F7KYQ8). The test can be described thus: β-lactamase inhibition, Ki by enzyme kinetics. Conditions: VIM-1, class B. Format: biochemical.
[22] abbreviates: Pseudomonas aeruginosa, read-out: Zone of Growth Inhibition.
Where [23] appears, read: E. Coli DC2, 2 mM solution, 50 μL in 9.0 mm well, P unclear, V very unclear zone, * slightly misshapen zone.

The compound `CO/N=C(\C(=O)N[C@@H]1C(=O)N(S(=O)(=O)[O-])[C@H]1CSCCN)c1cnc(N)s1.[K+]` [Compound 44] returned an MIC in test [1] of over 50 µM. For the same compound, the zone of inhibition at 2000 µM in test [2] (Escherichia coli, read-out: Zone of Growth Inhibition) was 23 mm; in test [3] (setting [22]), 14 mm; in test [4] (Mycolicibacterium vaccae, read-out: Zone of Growth Inhibition) it was 0 mm; in test [5], 0 mm; in [9], 0 mm; in test [10] (setting [22]), 0 mm. In addition, the antibacterial activity entry is “active” in [6] (against E. coli DC2, called wild type in the text); “moderately active” in test [11] (against B. subtilis, M. luteus, A. baumannii and the permeability mutant strains of P. aeruginosa and E. coli). For the same compound, the “Zone of Growth Inhibition” value was 14 s in test [7] and 16V in test [8].

For `CC(C)(C)OC(=O)NCCSC[C@@H]1NC(=O)[C@H]1NC(=O)OCC1c2ccccc2-c2ccccc21` [Compound 41], in [1], the MIC is over 50 µM. The “Zone of Growth Inhibition” value in test [2] turned out to be 15V; in test [3], 16P; in [4] it was 17V; in test [12] it was 13P; in [8] it was 13P; in test [10], 15P. Also, the zone of inhibition at 2000 µM in test [5] turned out to be 0 mm; in test [6] (Escherichia coli, E. Coli DC2, 2 mM solution, 50 μL in 9.0 mm well, P unclear, V very unclear zone, * slightly misshapen zone, read-out: Zone of Growth Inhibition), 0 mm; in test [7] (Micrococcus luteus, ATCC10240, read-out: Zone of Growth Inhibition), 0 mm; in test [9], 0 mm. Besides, the antibacterial activity entry was “only active against the permeability mutant DC0” in [11] (E. coli strains DC0 and DC2); “showed activity” in test [11] (P. aeruginosa, both the wild type (K799/0 wt) and the permeability mutant (K799/61)); “moderate activity” in [11] (against B. subtilis and M. vaccae, A. baumannii, P. aeruginosa and E. coli).

For the compound `O=C1CC(CBr)N1OS(=O)(=O)c1cccc2ccccc12` (centres unmarked) [Compound 61b], the inhibitory constant (Ki) in test [13] was 198 nM; in [14], over 160 µM; in test [15] it was over 160 µM; in [16], 4.67 µM; in test [17] it was over 160 µM; in test [19], over 160 µM. The same compound yielded an inhibition constant (Ki) in [20] of over 160 µM. The “Zone of Growth Inhibition” value in test [2] is 0 mm; in test [3], 0 mm; in test [5] it was 14P; in [12], 0 mm; in test [6] (setting [23]) it was 0 mm; in test [8] it was 12 mm. The “Zone of Growth Inhibition” value in [9] and in [10] was 0 mm throughout. Besides, the “β-lactamase inhibitory activity, selectivity” value in test [18] is “inhibited enzymes from both classes A and D”.

With `O=C1CC(CBr)N1OS(=O)(=O)c1ccc2ccccc2c1` (centres unmarked) [Compound 61c], the inhibition constant Ki in test [13] was 190 nM; in [14] it was over 160 µM; in test [15] it was over 160 µM; in test [16], over 160 µM; in test [17], over 160 µM; in [21], over 160 µM. Moreover, the Ki in test [19] and in [20] was over 160 µM in each case. In addition, the “Zone of Growth Inhibition” value in [2] worked out at 0 mm; in test [3] it was 0 mm; in test [5] it was 15 mm; in test [12], 0 mm; in [6] (setting [23]) it was 0 mm; in [9], 0 mm. In addition, the “Zone of Growth Inhibition” value in test [10] is listed as 0 mm. In addition, the “β-lactamase inhibitory activity, selectivity” value in [18] is on record as “active only against the class A enzyme SHV-12”.

`O=C1CC(CBr)N1OS(=O)(=O)/C=C/c1ccccc1` (centres unmarked) [Compound 61a]: the Ki in [13] was 779 nM; in test [14], over 160 µM; in [15] it was 19.3 µM; in test [16] it was 1.48 µM; in [17], 0.149 µM; in test [21], over 160 µM. In addition, the inhibition constant Ki in [19] and in test [20] was over 160 µM each time. For the same compound, the “Zone of Growth Inhibition” value is 0 mm in [2]; 0 mm in test [3]; 0 mm in test [12]; 0 mm in test [6] (setting [23]); 17 mm in [7]; 15* mm in [8]. The “Zone of Growth Inhibition” value in test [9] and in [10] was 0 mm in each case. Besides, in [18], the “β-lactamase inhibitory activity, selectivity” value was “inhibited enzymes from both classes A and D”.
